In patent publication US20140228349A1, “5,7-SUBSTITUTED-IMIDAZO[1,2-C]PYRIMIDINES” (Array BioPharma Inc., priority 2011, published 2014) one finds IC50 data, which are given here for eleven molecules.

Holding throughout (format): biochemical
The target of assay [1] is T1, Human Tyk2 kinase domain (Homo sapiens, UniProt P29597).
T1 construct: comprising amino acids 886 to 1187; His10 (10 histidine residues) (C, cleaved yes); made in house
T1 sequence (P29597 886-1187): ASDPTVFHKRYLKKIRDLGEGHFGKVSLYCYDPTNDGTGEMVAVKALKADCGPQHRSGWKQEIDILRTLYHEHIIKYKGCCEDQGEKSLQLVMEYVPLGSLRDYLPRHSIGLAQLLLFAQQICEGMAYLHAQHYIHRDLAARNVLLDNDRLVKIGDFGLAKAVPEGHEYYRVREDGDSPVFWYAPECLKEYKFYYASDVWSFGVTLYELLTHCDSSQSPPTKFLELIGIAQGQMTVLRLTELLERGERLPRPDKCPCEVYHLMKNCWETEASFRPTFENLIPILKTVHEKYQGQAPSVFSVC
The assay can be described thus: Tyk2 Inhibition Assay (Omnia kinase fluorescence peptide substrate). The settings on record: averaged IC50 ranges; 10 μM (Km app) or 1 mM ATP, 2 nM Tyk2. From the text:
(§1) The assays described in Examples A, B, C and D for the determination of Tyk2, JAK1, JAK2 and JAK3 kinase activity, respectively, utilized the Omnia® Kinase fluorescence peptide substrate-based technology (Invitrogen). The specific components of the assay mixture are described in Examples A, B, C and D. In these assays, Mg^2+ is chelated upon phosphorylation of the Omnia peptide by the kinase to form a bridge between the chelation-enhanced fluorophore Sox and the phosphate, resulting in an increase in fluorescence emission at 485 nm when excited at […]. The reactions were therefore read at excitation 360 nm and emission was measured at 485 nm every 50 seconds for 45 minutes using a PerkinElmer EnVision Multilabel Plate Reader.
(§2) The final buffer conditions for Tyk2, JAK1, JAK2, and JAK3 assays were as follows: 25 mM HEPES, pH 7.4, 10 mM MgCl2, 0.01% Triton X-100 and 1 mM DTT.
(§3) Compounds were prepared at 50× the final concentration in DMSO by conducting 3-fold serial dilutions from a 500-μM intermediate dilution to give a 10-point dosing curve having a high dose of 10 μM. Two-μL aliquots of these were transferred to a fresh plate for a ten-fold intermediate dilution with assay buffer. Five-μL aliquots of the diluted compounds were then transferred to 20-μL of assay mixtures described in Examples A, B, C and D for a final concentration of DMSO of 2%. A standard or reference compound was typically included on each assay plate to validate that plate. For each plate, percent of control (POC) values were calculated for each well according to the following equation: […]
(§4) IC50's were estimated from the POC's using a standard 4-parameter logistic model:
(§5) The IC50 is defined as the concentration of inhibitor at which the POC equals 50 for the fitted curve.
Compounds of Formula I were screened for their ability to inhibit Tyk2 using the general enzyme inhibition assay method, in which the assay mixture contained 10 μM (Km app) or 1 mM ATP, 8 μM Omnia® Y12 peptide (Catalog #IVGN KPZ3121C; Invitrogen Corporation, Carlsbad, Calif.) and 2 nM Tyk2 in a total volume of 20 μL. Human Tyk2 kinase domain, comprising amino acids 886 to 1187 with 10 additional histidine residues (histidine tag) on the carboxy terminus, was expressed and purified from bacculovirus in-house at Array BioPharma Inc. (Boulder, Colo.). The histidine tag was cleaved after purification using standard conditions.

In assay [2] the target is T2, JAK1 (Homo sapiens, UniProt P23458).
T2 construct: purchased Invitrogen Corporation, Carlsbad, Calif; IVGN PV4775
T2 sequence (P23458 whole entry): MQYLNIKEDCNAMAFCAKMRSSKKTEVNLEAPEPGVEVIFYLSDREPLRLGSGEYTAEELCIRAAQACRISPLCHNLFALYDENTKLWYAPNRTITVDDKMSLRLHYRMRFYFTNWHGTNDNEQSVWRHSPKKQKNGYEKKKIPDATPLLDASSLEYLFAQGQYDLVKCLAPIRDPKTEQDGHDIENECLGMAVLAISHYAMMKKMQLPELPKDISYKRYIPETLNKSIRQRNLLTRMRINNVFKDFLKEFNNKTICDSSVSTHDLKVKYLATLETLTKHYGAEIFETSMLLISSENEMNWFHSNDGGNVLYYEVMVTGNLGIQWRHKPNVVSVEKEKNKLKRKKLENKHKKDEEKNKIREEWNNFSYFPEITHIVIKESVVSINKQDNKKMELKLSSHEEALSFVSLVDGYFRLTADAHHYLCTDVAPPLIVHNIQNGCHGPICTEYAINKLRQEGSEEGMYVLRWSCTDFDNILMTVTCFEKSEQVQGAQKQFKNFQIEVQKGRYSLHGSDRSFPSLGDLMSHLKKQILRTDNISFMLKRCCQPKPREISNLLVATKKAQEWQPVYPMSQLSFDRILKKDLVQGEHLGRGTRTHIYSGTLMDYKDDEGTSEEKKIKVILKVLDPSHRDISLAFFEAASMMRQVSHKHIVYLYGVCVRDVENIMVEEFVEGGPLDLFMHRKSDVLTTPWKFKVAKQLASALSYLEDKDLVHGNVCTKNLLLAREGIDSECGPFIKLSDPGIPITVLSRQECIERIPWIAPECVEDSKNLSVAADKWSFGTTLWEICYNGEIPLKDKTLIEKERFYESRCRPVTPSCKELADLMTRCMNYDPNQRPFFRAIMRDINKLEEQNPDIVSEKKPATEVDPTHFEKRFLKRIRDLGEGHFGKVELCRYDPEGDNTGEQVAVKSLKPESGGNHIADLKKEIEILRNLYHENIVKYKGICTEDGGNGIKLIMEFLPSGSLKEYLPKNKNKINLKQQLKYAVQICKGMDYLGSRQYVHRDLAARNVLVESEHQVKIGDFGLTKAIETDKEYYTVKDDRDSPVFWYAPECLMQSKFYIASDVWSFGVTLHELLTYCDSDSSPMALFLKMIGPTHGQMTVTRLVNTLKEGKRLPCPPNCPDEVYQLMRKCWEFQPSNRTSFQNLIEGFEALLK
Nature of the assay: JAK1 Inhibition Assay (Omnia kinase fluorescence peptide substrate). The settings on record: averaged IC50 ranges; 40 μM (Km app) or 1 mM ATP, 15 nM JAK1.
Description: as §1, §2, §3, §4, §5
Compounds of Formula I were screened for their ability to inhibit JAK1 using the general enzyme inhibition assay method, in which the assay mixture contained 40 μM (Km app) or 1 mM ATP, 8 μM Omnia® Y12 peptide (Catalog #IVGN KPZ3121C; Invitrogen Corporation, Carlsbad, Calif.) and 15 nM JAK1 in a total volume of 20 μL. JAK1 was purchased from Invitrogen Corporation, Carlsbad, Calif. (catalog #IVGN PV4775).

The target of assay [3] is T3, JAK3 (Homo sapiens, UniProt P52333).
T3 construct: purchased Invitrogen Corporation, Carlsbad, Calif; IVGN PV4080
T3 sequence (P52333 1-1124): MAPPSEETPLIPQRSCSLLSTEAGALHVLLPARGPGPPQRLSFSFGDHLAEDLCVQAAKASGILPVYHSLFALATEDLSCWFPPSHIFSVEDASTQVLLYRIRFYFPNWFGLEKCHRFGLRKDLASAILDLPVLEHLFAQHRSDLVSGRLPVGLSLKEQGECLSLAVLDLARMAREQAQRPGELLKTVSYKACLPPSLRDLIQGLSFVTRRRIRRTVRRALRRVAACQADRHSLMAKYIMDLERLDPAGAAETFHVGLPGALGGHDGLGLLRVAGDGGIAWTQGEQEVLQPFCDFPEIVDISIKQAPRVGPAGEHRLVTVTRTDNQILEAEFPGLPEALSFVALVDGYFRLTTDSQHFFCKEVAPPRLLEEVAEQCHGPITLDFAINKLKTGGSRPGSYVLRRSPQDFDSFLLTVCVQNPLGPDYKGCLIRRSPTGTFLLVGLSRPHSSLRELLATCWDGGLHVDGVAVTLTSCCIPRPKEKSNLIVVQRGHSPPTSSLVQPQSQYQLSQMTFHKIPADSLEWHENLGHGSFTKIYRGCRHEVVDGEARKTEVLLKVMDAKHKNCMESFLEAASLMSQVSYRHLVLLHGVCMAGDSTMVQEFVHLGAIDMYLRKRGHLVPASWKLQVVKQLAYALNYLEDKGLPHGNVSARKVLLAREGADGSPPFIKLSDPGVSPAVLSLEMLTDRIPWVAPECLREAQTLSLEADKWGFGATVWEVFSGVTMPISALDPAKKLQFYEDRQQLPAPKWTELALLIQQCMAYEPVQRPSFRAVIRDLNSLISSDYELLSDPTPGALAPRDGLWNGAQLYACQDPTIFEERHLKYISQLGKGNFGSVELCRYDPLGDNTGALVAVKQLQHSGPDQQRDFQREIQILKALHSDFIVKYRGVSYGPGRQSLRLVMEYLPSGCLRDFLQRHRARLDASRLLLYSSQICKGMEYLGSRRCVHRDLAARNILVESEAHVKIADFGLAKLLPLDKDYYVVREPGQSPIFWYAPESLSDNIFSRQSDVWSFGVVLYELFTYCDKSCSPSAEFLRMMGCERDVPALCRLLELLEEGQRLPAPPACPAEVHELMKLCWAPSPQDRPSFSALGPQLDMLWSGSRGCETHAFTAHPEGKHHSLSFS
The assay can be described thus: JAK3 Inhibition Assay (Omnia kinase fluorescence peptide substrate). The settings on record: averaged IC50 ranges; 10 μM (Km app) or 1 mM ATP, 2.5 nM JAK3.
Description: as §1, §2, §3, §4, §5
Compounds of Formula I were screened for their ability to inhibit JAK3 using the general enzyme inhibition assay method, in which the assay mixture contained 10 μM (Km app) or 1 mM ATP, 10 μM Omnia® Y7 peptide (Catalog #IVGN KNZ3071C, Invitrogen Corporation, Carlsbad, Calif.) and 2.5 nM JAK3 in a total volume of 20 μL. JAK3 was purchased from Invitrogen Corporation, Carlsbad, Calif. (catalog #IVGN PV4080).

In assay [4] the target is T4, JAK2 (Homo sapiens, UniProt O60674).
T4 construct: purchased Invitrogen Corporation, Carlsbad, Calif; IVGN PV4288
T4 sequence (O60674 whole entry): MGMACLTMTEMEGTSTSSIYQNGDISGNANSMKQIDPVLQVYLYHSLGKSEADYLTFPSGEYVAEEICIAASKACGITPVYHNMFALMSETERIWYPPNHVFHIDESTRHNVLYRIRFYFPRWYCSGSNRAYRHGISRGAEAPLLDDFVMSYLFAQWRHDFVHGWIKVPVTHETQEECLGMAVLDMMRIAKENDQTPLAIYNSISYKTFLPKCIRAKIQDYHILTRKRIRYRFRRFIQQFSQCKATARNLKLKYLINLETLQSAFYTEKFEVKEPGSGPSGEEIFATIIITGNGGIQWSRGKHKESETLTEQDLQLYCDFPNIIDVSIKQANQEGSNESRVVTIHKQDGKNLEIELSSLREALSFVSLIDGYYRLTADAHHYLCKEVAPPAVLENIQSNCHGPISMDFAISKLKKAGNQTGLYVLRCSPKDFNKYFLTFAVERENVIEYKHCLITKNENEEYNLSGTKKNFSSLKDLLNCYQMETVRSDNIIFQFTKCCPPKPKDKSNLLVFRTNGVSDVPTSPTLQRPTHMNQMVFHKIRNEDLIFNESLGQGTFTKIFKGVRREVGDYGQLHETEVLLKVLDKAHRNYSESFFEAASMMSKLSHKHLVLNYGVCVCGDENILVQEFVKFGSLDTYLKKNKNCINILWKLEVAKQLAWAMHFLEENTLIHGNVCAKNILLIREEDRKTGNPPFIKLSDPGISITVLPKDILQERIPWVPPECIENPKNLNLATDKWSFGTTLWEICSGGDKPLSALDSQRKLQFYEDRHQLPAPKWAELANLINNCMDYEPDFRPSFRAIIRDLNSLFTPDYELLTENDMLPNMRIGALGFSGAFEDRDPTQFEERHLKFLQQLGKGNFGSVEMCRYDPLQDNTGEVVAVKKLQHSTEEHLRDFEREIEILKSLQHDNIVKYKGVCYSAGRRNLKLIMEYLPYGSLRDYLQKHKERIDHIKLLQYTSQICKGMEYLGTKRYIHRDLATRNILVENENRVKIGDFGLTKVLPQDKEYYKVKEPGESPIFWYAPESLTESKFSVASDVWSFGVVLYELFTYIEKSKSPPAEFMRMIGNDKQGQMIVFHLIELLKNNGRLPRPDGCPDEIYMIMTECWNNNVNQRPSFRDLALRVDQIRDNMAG
Nature of the assay: JAK2 Inhibition Assay (Omnia kinase fluorescence peptide substrate). The settings on record: averaged IC50 ranges; 25 μM (Km app) or 1 mM ATP, 5 nM JAK2.
Description: as §1, §2, §3, §4, §5
Compounds of Formula I were screened for their ability to inhibit JAK2 using the general enzyme inhibition assay method, in which the assay mixture contained 25 μM (Km app) or 1 mM ATP, 10 μM Omnia® Y7 peptide (Catalog #IVGN KNZ3071C, Invitrogen Corporation, Carlsbad, Calif.) and 5 nM JAK2 in a total volume of 20 μL. JAK2 was purchased from Invitrogen Corporation, Carlsbad, Calif. (catalog #IVGN PV4288).

Take `Cn1cc(-c2cc3nccn3c(-c3cnn(C(CCF)C4CC4)c3)n2)cn1` (centres unmarked) [Example 17, 5-(1-(1-Cyclopropyl-3-fluoropropyl)-1H-pyrazol-4-yl)-7-(1-methyl-1H-pyrazol-4-yl)imidazo[1,2-c]pyrimidine]: the IC50 (usually the concentration needed to halve the response being measured) is less than 10 nM in assay [1], 100 to 1000 nM in assay [2], 100 to 1000 nM in assay [3] and 10 to 100 nM in assay [4].

Take `Cn1cc(-c2cc3nccn3c(-c3cnn(C(CCF)C4CCC4)c3)n2)cn1` (centres unmarked) [Example 69, 5-(1-(1-cyclobutyl-3-fluoropropyl)-1H-pyrazol-4-yl)-7-(1-methyl-1H-pyrazol-4-yl)imidazo[1,2-c]pyrimidine]: the IC50 in assay [1] was less than 10 nM; in assay [2] it was 100 to 1000 nM; in assay [3] it was 100 to 1000 nM; in assay [4], 10 to 100 nM.

For `O=S(=O)(N1CC(CCF)(n2cc(-c3nc(-c4cn[nH]c4)cc4nccn34)cn2)C1)C(F)(F)F` [Example 78, 5-(1-(3-(2-fluoroethyl)-1-((trifluoromethyl)sulfonyl)azetidin-3-yl)-1H-pyrazol-4-yl)-7-(1H-pyrazol-4-yl)imidazo[1,2-c]pyrimidine], the IC50 in assay [1] is less than 10 nM; in assay [2], 10 to 100 nM; in assay [3], 100 to 1000 nM; in assay [4] it was 10 to 100 nM.

`C=CC1(n2ccc(-c3nc(-c4cnn(C)c4)cc4nccn34)c2)CN(S(=O)(=O)C(F)(F)F)C1` [Example 27, 7-(1-methyl-1H-pyrazol-4-yl)-5-(1-(1-((trifluoromethyl)sulfonyl)-3-vinylazetidin-3-yl)-1H-pyrrol-3-yl)imidazo[1,2-c]pyrimidine]: the IC50 in assay [1] is less than 10 nM; in assay [2] it was 10 to 100 nM; in assay [3], 10 to 100 nM; in assay [4], 10 to 100 nM.

With `Cn1cc(-c2cc3nccn3c(-c3cnn(C4(C)CN(S(=O)(=O)C(F)(F)F)C4)c3)n2)cn1` [Example 16, 5-(1-(3-Methyl-1-(trifluoromethylsulfonyl)azetidin-3-yl)-1H-pyrazol-4-yl)-7-(1-methyl-1H-pyrazol-4-yl)imidazo[1,2-c]pyrimidine], the IC50 is 10 to 100 nM in assay [1], 100 to 1000 nM in assay [2], greater than 1000 nM in assay [3] and 100 to 1000 nM in assay [4].

Regarding `Cn1cc(-c2cc3nccn3c(-c3cnn(C(CCO)c4ccc(F)cc4)c3)n2)cn1` (centres unmarked) [Example 81, 3-(4-fluorophenyl)-3-(4-(7-(1-methyl-1H-pyrazol-4-yl)imidazo[1,2-c]pyrimidin-5-yl)-1H-pyrazol-1-yl)propan-1-ol], the IC50 in assay [1], in assay [2], in assay [3] and in assay [4] was 100 to 1000 nM throughout.

For `CC(C)S(=O)(=O)N1CC(CCF)(n2cc(-c3nc(-c4cnn(C)c4)cc4nccn34)cn2)C1` [Example 95, 5-(1-(3-(2-fluoroethyl)-1-(isopropylsulfonyl)azetidin-3-yl)-1H-pyrazol-4-yl)-7-(1-methyl-1H-pyrazol-4-yl)imidazo[1,2-c]pyrimidine], the IC50 in assay [1] is 100 to 1000 nM; in assay [2], greater than 1000 nM; in assay [3], greater than 1000 nM; in assay [4], 100 to 1000 nM.

Turning to `COCCC1(n2cc(-c3nc(-c4cnn(C)c4)cc4nccn34)cn2)CN(S(=O)(=O)C(F)(F)F)C1` [Example 4, 5-(1-(3-(2-methoxyethyl)-1-((trifluoromethyl)sulfonyl)azetidin-3-yl)-1H-pyrazol-4-yl)-7-(1-methyl-1H-pyrazol-4-yl)imidazo[1,2-c]pyrimidine], the IC50 in assay [1] is 100 to 1000 nM; in assay [2], greater than 1000 nM; in assay [3], greater than 1000 nM; in assay [4], greater than 1000 nM.

Turning to `C[C@@H](O)C[C@H](C1CC1)n1cc(-c2nc(-c3cnn(C)c3)cc3nccn23)cn1` [Example 40, (2R,4R)-4-cyclopropyl-4-(4-(7-(1-methyl-1H-pyrazol-4-yl)imidazo[1,2-c]pyrimidin-5-yl)-1H-pyrazol-1-yl)butan-2-ol], the 50% inhibitory concentration (IC50) was 100 to 1000 nM in assay [1], greater than 1000 nM in assay [2], greater than 1000 nM in assay [3] and 100 to 1000 nM in assay [4].

Take `Cn1cc(-c2cc3nccn3c(-c3cnn(C(CCO)C4CCCCC4)c3)n2)cn1` (centres unmarked) [Example 73, 3-cyclohexyl-3-(4-(7-(1-methyl-1H-pyrazol-4-yl)imidazo[1,2-c]pyrimidin-5-yl)-1H-pyrazol-1-yl)propan-1-ol]: the IC50 in assay [1] is 100 to 1000 nM; in assay [2] it was greater than 1000 nM; in assay [3] it was greater than 1000 nM; in assay [4], 100 to 1000 nM.

Regarding `CCn1cc(-c2nc(-c3cnn(C)c3)cc3nccn23)cn1` [Example 5, 5-(1-ethyl-1H-pyrazol-4-yl)-7-(1-methyl-1H-pyrazol-4-yl)imidazo[1,2-c]pyrimidine], the IC50 is 100 to 1000 nM in assay [1], greater than 1000 nM in assay [2], greater than 1000 nM in assay [3] and 100 to 1000 nM in assay [4].
